From patent US6582662B1, “Devices and methods for the performance of miniaturized homogeneous assays” (Tecan Trading AG, priority 1999, dated 2003)

Biological target: alkaline phosphatase
Test: Enzyme inhibition assay on microfluidic disc (alkaline phosphatase / PNPP, reflectance at 430 nm)
Assay type: biochemical
Conditions: end-point measurement 2 minutes after fluid pumped into detection chambers; dose-response fitted to Langmuir isotherm; substrate PNPP 0.5 mM; alkaline phosphatase 1 mg/mL; 0.1M glycine, 0.5 mM MgCl2; read-out: inhibition constant
Method: The platform shown in FIGS. 1 through 6 was used to perform 96 simultaneous enzyme inhibition assays as model homogeneous assays. In an enzyme inhibition assay, the effect of a compound present in a first fluid (“A”) upon the capacity of an enzyme present in a second fluid (fluid “B”) to catalyze a reaction, typically of a substrate in a third fluid (“C”) is determined. The reaction was chosen to give a change in a readily-measured parameter of the fluid, such as its optical density, or to produce a fluorescent moiety. When no inhibitor was present in fluid A, mixing solution A with enzyme solution B had no effect: enzyme activity detected in this assay was the maximum detected and provided the largest change in the measured parameter. However, if an inhibitor was present in fluid A, mixing fluid A with fluid B resulted, after a sufficient time in a chemical reaction or other change induced by the inhibitor in most or all of the enzyme molecules, rendering them incapable of catalyzing the desired reaction. If this solution was mixed with the substrate solution, little or no change in the measured parameter was seen.
The system chosen to model homogeneous assays consisted of theophylline as inhibitor, alkaline phosphatase as the enzyme, and p-nitrophenol phosphate (PNPP) as the substrate. […]

Cn1c(=O)c2[nH]cnc2n(C)c1=O [theophylline]
Ki: 9.7 ± 0.9 mM
